Measured values published in PubChem BioAssay AID248 (DTP/NCI, 2004).
Where “and” joins values, the source holds several entries; their conditions need not be identical. Equal entries are not always repeated. Inconclusive results and toxic doses are left out.

Tested on: L1210 leukemia ip in BDF1 mice, survival T/C
Test: NCI In Vivo Anticancer Drug Screen. Data for tumor model L1210 Leukemia (intraperitoneal) in B6D2F1 (BDF1) mice
Conditions: endpoint: mean survival time, higher = longer survival
Outline: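 Transplantable tumor model; survival measured in treated vs vehicle control mice. Value = treated/control.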

[1] = dose: 100.0 mg/kg/injection, schedule: Q01DX001 (ip), vehicle: Klucel (hydroxypropylcellulose) (HPC)
[2] = dose: 200.0 mg/kg/injection, schedule: Q01DX001 (ip), vehicle: Klucel (hydroxypropylcellulose) (HPC)
[3] = dose: 400.0 mg/kg/injection, schedule: Q01DX001 (ip), vehicle: Klucel (hydroxypropylcellulose) (HPC)
[4] = dose: 100.0 mg/kg/injection, schedule: Q01DX009 (ip), vehicle: saline with Tween-80
[5] = dose: 100.0 mg/kg/injection, schedule: Q04DX003 (ip), vehicle: saline with Tween-80
[6] = dose: 200.0 mg/kg/injection, schedule: Q01DX009 (ip), vehicle: saline with Tween-80
[7] = dose: 200.0 mg/kg/injection, schedule: Q04DX003 (ip), vehicle: saline with Tween-80
[8] = dose: 400.0 mg/kg/injection, schedule: Q04DX003 (ip), vehicle: saline with Tween-80

CCOC(=O)c1[nH]c(C)c(/C=C/C(=O)O)c1C
T/C (dose: 25.0 mg/kg/injection, schedule: Q04DX003 (ip), vehicle: Klucel (hydroxypropylcellulose) (HPC)): 98 % of control | T/C (dose: 50.0 mg/kg/injection, schedule: Q04DX003 (ip), vehicle: Klucel (hydroxypropylcellulose) (HPC)): 95 % of control | T/C [1]: 106 % of control | T/C (dose: 100.0 mg/kg/injection, schedule: Q04DX003 (ip), vehicle: Klucel (hydroxypropylcellulose) (HPC)): 101 % of control | T/C [2]: 98 % of control | T/C [3]: 98 % of control

CCOC(=O)C1CC(C)=C(C)CC1C(=O)O (stereo not drawn)
T/C [4]: 87 % of control | T/C [5]: 98 % of control | T/C [6]: 97 % of control | T/C [7]: 90 % of control | T/C (dose: 400.0 mg/kg/injection, schedule: Q01DX009 (ip), vehicle: saline with Tween-80): 92 % of control | T/C [8]: 98 % of control

CC1=CC(=O)C2=C(C)CCC3C(C)C(=O)OC3C12 (stereo not drawn)
T/C (dose: 200.0 mg/kg/injection, schedule: Q01DX001 (ip), vehicle: saline with Tween-80): 98 % of control | T/C (dose: 400.0 mg/kg/injection, schedule: Q01DX001 (ip), vehicle: saline with Tween-80): 162 % of control

CC(O)(c1cccc(Cl)c1)C(c1ccccc1)c1ccccn1 (stereo not drawn)
T/C [5]: 101 % of control and 100 % of control | T/C [7]: 92 % of control and 106 % of control | T/C [8]: 101 % of control and 106 % of control

CCSCC1OC(n2ncc3c(N)ncnc32)C(O)C1O (stereo not drawn)
T/C [1]: 98 % of control | T/C [2]: 93 % of control | T/C [3]: 97 % of control

C=CCOC(=N)c1ccccc1
T/C (dose: 50.0 mg/kg/injection, schedule: Q01DX009 (ip), vehicle: saline with Tween-80): 93 % of control | T/C [4]: 105 % of control | T/C [6]: 91 % of control

C[n+]1c(I)ccc2ccccc21
T/C (dose: 100.0 mg/kg/injection, schedule: Q01DX001 (ip), vehicle: other): 105 % of control | T/C (dose: 200.0 mg/kg/injection, schedule: Q01DX001 (ip), vehicle: other): 105 % of control | T/C (dose: 400.0 mg/kg/injection, schedule: Q01DX001 (ip), vehicle: other): 110 % of control

C#CC(C)N1CCC2(CC1)C(=O)NCN2c1ccccc1 (stereo not drawn)
T/C [1]: 98 % of control | T/C [2]: 97 % of control | T/C [3]: 95 % of control

CNC
T/C (dose: 25.0 mg/kg/injection, schedule: Q04DX002 (ip), vehicle: saline with Tween-80): 95 % of control | T/C (dose: 50.0 mg/kg/injection, schedule: Q04DX002 (ip), vehicle: saline with Tween-80): 88 % of control | T/C (dose: 100.0 mg/kg/injection, schedule: Q04DX002 (ip), vehicle: saline with Tween-80): 88 % of control

CNC(=O)Nc1ccccc1
T/C [5]: 94 % of control | T/C [7]: 90 % of control | T/C [8]: 94 % of control

Cc1cc(SC#N)ncn1
T/C (dose: 5.0 mg/kg/injection, schedule: Q01DX001 (ip), vehicle: saline): 98 % of control | T/C (dose: 10.0 mg/kg/injection, schedule: Q01DX001 (ip), vehicle: saline): 101 % of control

Cc1cc(C)c(-c2cc(O)c(C)cc2O)c(C)c1
T/C (dose: 25.0 mg/kg/injection, schedule: Q01DX009 (ip), vehicle: other): 103 % of control | T/C (dose: 50.0 mg/kg/injection, schedule: Q01DX009 (ip), vehicle: other): 99 % of control | T/C (dose: 100.0 mg/kg/injection, schedule: Q01DX009 (ip), vehicle: other): 101 % of control | T/C (dose: 200.0 mg/kg/injection, schedule: Q01DX009 (ip), vehicle: other): 97 % of control | T/C (dose: 400.0 mg/kg/injection, schedule: Q01DX009 (ip), vehicle: other): 100 % of control

Cc1ccc(S(N)(=O)=O)cc1S(N)(=O)=O
T/C [1]: 94 % of control | T/C [2]: 92 % of control | T/C [3]: 105 % of control

CSc1nc2c(=O)[nH][nH]c(=O)c2n1Cc1ccccc1
T/C (dose: 100.0 mg/kg/injection, schedule: Q01DX001 (ip), vehicle: carboxymethylcellulose (CMC)): 92 % of control | T/C (dose: 200.0 mg/kg/injection, schedule: Q01DX001 (ip), vehicle: carboxymethylcellulose (CMC)): 90 % of control | T/C (dose: 400.0 mg/kg/injection, schedule: Q01DX001 (ip), vehicle: carboxymethylcellulose (CMC)): 95 % of control
